Target: T1, DnaE1 (Mycobacterium tuberculosis, UniProt P9WNT7)
T1 sequence (P9WNT7 1-1184): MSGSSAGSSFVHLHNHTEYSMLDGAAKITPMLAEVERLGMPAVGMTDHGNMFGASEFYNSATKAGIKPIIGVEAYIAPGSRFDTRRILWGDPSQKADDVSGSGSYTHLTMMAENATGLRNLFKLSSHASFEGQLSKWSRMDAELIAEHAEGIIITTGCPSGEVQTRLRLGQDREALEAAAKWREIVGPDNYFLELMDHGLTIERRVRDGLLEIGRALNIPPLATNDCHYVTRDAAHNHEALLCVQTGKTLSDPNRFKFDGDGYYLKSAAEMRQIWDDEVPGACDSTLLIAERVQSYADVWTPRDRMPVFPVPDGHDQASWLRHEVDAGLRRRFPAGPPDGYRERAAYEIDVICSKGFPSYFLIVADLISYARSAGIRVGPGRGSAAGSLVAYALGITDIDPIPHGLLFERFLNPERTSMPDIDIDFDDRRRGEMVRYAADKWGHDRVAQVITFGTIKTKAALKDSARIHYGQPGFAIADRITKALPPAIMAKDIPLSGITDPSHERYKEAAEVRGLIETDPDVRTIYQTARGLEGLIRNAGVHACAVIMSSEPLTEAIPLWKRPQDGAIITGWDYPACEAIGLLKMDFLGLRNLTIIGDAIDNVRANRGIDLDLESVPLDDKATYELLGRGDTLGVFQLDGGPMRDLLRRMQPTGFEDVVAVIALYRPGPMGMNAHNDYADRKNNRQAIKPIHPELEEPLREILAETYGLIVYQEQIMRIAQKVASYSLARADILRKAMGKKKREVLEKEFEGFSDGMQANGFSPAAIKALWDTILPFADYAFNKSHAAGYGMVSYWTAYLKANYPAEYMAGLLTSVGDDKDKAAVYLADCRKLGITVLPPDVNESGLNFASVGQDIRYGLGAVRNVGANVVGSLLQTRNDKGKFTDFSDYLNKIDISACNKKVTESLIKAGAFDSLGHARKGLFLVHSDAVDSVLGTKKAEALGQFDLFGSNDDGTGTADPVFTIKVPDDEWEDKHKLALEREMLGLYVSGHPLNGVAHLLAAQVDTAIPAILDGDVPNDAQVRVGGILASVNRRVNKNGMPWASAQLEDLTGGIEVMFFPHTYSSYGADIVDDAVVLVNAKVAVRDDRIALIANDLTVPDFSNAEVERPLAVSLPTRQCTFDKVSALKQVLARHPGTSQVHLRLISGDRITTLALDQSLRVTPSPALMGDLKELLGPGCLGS
Assay: 2-aminopurine fluorescence exonuclease assay, dose-response
Type: biochemical

Q: For `OC[C@H]1O[C@@H](n2cnc3c(S)ncnc32)[C@H](O)[C@@H]1O` [6-thioinosine], which IC50 is on record?
A: 64 µM

From paper PMC9996622 (ACS Omega, 2023)
